How the values were obtained:
[1] = 101.33 kPa, Liquid
[2] = xn = mol fraction of the nth substance listed; conditions: 101 kPa, Liquid
[3] = excess molar enthalpy (molar enthalpy of mixing); xn = mol fraction of the nth substance listed; conditions: 101 kPa, Liquid

CC(C)CO [2-methyl-1-propanol]
[1]
Conditions | mass density [kg/m3] | speed of sound [m/s]
283.15 K | 809.36 | 1238.7
298.15 K | 798.03 | 1188
303.15 K | 794.17 | 1174.3
313.15 K | 786.1 | 1138
323.15 K | 777.85 | 1108.2

CC(C)(C)O [2-methylpropan-2-ol]
[1]
Conditions | mass density [kg/m3] | speed of sound [m/s]
303.15 K | 775.75 | 1101.9
313.15 K | 765.05 | 1056.4
323.15 K | 754.12 | 1015.9

C=C1CCC2CC1C2(C)C (stereo not drawn) [β-pinene]
[1]
Conditions | mass density [kg/m3] | speed of sound [m/s]
283.15 K | 879.07 | 1354.7
298.15 K | 867.11 | 1295.1
303.15 K | 863.17 | 1278.6
313.15 K | 854.87 | 1236.3
323.15 K | 846.75 | 1200.7

C=C1CCC2CC1C2(C)C (stereo not drawn) [β-pinene] + CC(C)(C)O
Conditions | excess molar enthalpy [kcal/mol] | mass density [kg/m3] | speed of sound [m/s]
[2], 303.15 K, x1 = 0.0534 | – | 782.04 | 1110
[2], 303.15 K, x1 = 0.1048 | – | 787.79 | 1118.6
[2], 303.15 K, x1 = 0.2017 | – | 798.21 | 1135.6
[2], 303.15 K, x1 = 0.2814 | – | 806.31 | 1150.6
[2], 303.15 K, x1 = 0.4041 | – | 817.92 | 1173.7
[2], 303.15 K, x1 = 0.5042 | – | 826.75 | 1192.6
[2], 303.15 K, x1 = 0.6025 | – | 834.76 | 1210.5
[2], 303.15 K, x1 = 0.7042 | – | 842.46 | 1228.3
[2], 303.15 K, x1 = 0.8048 | – | 849.62 | 1244.8
[2], 303.15 K, x1 = 0.9007 | – | 856.11 | 1260.2
[2], 303.15 K, x1 = 0.9495 | – | 859.38 | 1268.7
[2], 313.15 K, x1 = 0.0561 | – | 771.94 | 1066.4
[2], 313.15 K, x1 = 0.108 | – | 777.84 | 1076
[2], 313.15 K, x1 = 0.2041 | – | 788.5 | 1094.3
[2], 313.15 K, x1 = 0.2996 | – | 798.32 | 1112.7
[2], 313.15 K, x1 = 0.4028 | – | 808.25 | 1132.3
[2], 313.15 K, x1 = 0.5039 | – | 817.37 | 1151
[2], 313.15 K, x1 = 0.5964 | – | 825.06 | 1167.1
[2], 313.15 K, x1 = 0.6957 | – | 832.77 | 1183.8
[2], 313.15 K, x1 = 0.7979 | – | 840.16 | 1201.1
[2], 313.15 K, x1 = 0.893 | – | 846.86 | 1216.7
[2], 313.15 K, x1 = 0.9475 | – | 850.67 | 1226.2
[2], 323.15 K, x1 = 0.0554 | – | 761.34 | 1027.2
[2], 323.15 K, x1 = 0.1025 | – | 766.94 | 1036.7
[2], 323.15 K, x1 = 0.2016 | – | – | 1056.6
[2], 323.15 K, x1 = 0.2032 | – | 778.49 | –
[2], 323.15 K, x1 = 0.3022 | – | 788.82 | 1076.4
[2], 323.15 K, x1 = 0.3988 | – | 798.4 | 1095.2
[2], 323.15 K, x1 = 0.5053 | – | 808.25 | 1115.2
[2], 323.15 K, x1 = 0.5996 | – | 816.33 | 1132.3
[2], 323.15 K, x1 = 0.7001 | – | 824.27 | 1149.5
[2], 323.15 K, x1 = 0.7941 | – | 831.23 | –
[2], 323.15 K, x1 = 0.799 | – | – | 1165.8
[2], 323.15 K, x1 = 0.8861 | – | – | 1180.1
[2], 323.15 K, x1 = 0.8905 | – | 838.16 | –
[2], 323.15 K, x1 = 0.9367 | – | – | 1188.6
[2], 323.15 K, x1 = 0.9453 | – | 842.1 | –
[3], 303.15 K, x1 = 0.0529 | 0.0559 | – | –
[3], 303.15 K, x1 = 0.109 | 0.102 | – | –
[3], 303.15 K, x1 = 0.2159 | 0.162 | – | –
[3], 303.15 K, x1 = 0.3175 | 0.192 | – | –
[3], 303.15 K, x1 = 0.4299 | 0.198 | – | –
[3], 303.15 K, x1 = 0.5331 | 0.201 | – | –
[3], 303.15 K, x1 = 0.6229 | 0.194 | – | –
[3], 303.15 K, x1 = 0.7198 | 0.175 | – | –
[3], 303.15 K, x1 = 0.8249 | 0.15 | – | –
[3], 303.15 K, x1 = 0.9096 | 0.114 | – | –
[3], 303.15 K, x1 = 0.9686 | 0.0566 | – | –
[3], 313.15 K, x1 = 0.0529 | 0.0538 | – | –
[3], 313.15 K, x1 = 0.109 | 0.104 | – | –
[3], 313.15 K, x1 = 0.2159 | 0.179 | – | –
[3], 313.15 K, x1 = 0.3175 | 0.217 | – | –
[3], 313.15 K, x1 = 0.4299 | 0.229 | – | –
[3], 313.15 K, x1 = 0.5331 | 0.238 | – | –
[3], 313.15 K, x1 = 0.6229 | 0.235 | – | –
[3], 313.15 K, x1 = 0.7198 | 0.22 | – | –
[3], 313.15 K, x1 = 0.8249 | 0.184 | – | –
[3], 313.15 K, x1 = 0.9096 | 0.139 | – | –
[3], 313.15 K, x1 = 0.9686 | 0.0621 | – | –
[3], 323.15 K, x1 = 0.0529 | 0.102 | – | –
[3], 323.15 K, x1 = 0.109 | 0.141 | – | –
[3], 323.15 K, x1 = 0.2159 | 0.201 | – | –
[3], 323.15 K, x1 = 0.3175 | 0.236 | – | –
[3], 323.15 K, x1 = 0.4299 | 0.251 | – | –
[3], 323.15 K, x1 = 0.5331 | 0.263 | – | –
[3], 323.15 K, x1 = 0.6229 | 0.262 | – | –
[3], 323.15 K, x1 = 0.7198 | 0.248 | – | –
[3], 323.15 K, x1 = 0.8249 | 0.199 | – | –
[3], 323.15 K, x1 = 0.9096 | 0.147 | – | –
[3], 323.15 K, x1 = 0.9686 | 0.0528 | – | –
